Assay results taken from patent US11446287B2, “Compounds and methods for EP300 or CBP modulation and indications therefor” (Opna Immuno-Oncology SA, priority 2019, dated 2022).

The compounds below were run against T1, Recombinant human BRD4 containing dual bromodomains (BRD4-BD12 (1-477)) (Homo sapiens, UniProt O60885) (assay: BRD4 Alphascreen binding assay).
T1 construct: Recombinant human BRD4 containing dual bromodomains (BRD4-BD12 (1-477)); made in house; host or cells: E. coli BL21-CodonPlus (DE3), modified pET vector
Procedure, shortened: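 AlphaScreen proximity between Ni-chelate-bound BRD4-BD12 (1-477) and streptavidin-captured H4 K5/K8/K12/K16-acetyl peptide measured after 1 h room-temperature compound incubation and 30 min with 7.5 μg/ml beads. Buffer: 50 mM HEPES pH 7.5, 50 mM NaCl, 0.01% BSA, 0.01% Triton X-100; data plate-normalized and four-parameter fit for IC50.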
With `Cc1cc(C(=O)O)cc(OCC(F)F)c1-c1cn(C2CCOCC2)c2ncc(-c3c(C)noc3C)cc12` [P-0367, 3-(2,2-difluoroethoxy)-4-(5-(3,5-dimethylisoxazol-4-yl)-1-(tetrahydro-2H-pyran-4-yl)-1H-pyrrolo[2,3-b]pyridin-3-yl)-5-methylbenzoic acid] the IC50 was 1 to 8 µM.
In the case of `COc1nc(C(=O)O)ccc1-c1cn(C2CCOCC2)c2ncc(-c3c(C)noc3C)cc12` [P-0368, 5-(5-(3,5-dimethylisoxazol-4-yl)-1-(tetrahydro-2H-pyran-4-yl)-1H-pyrrolo[2,3-b]pyridin-3-yl)-6-methoxypicolinic acid], the IC50 is reported as 8 to 1000 µM.
For `Cc1noc(C)c1-c1cnc2c(c1)c(-c1c(F)cc(C(=O)O)cc1OC(C)C)cn2C(C1CC1)C1CC1` [P-0369, 4-(1-(dicyclopropylmethyl)-5-(3,5-dimethylisoxazol-4-yl)-1H-pyrrolo[2,3-b]pyridin-3-yl)-3-fluoro-5-isopropoxybenzoic acid], the IC50 was 1 to 8 µM.
In the case of `CCOc1cc(C(=O)O)cc(Cl)c1-c1cn(C(C2CC2)C2CC2)c2ncc(-c3c(C)noc3C)cc12` [P-0370, 3-chloro-4-(1-(dicyclopropylmethyl)-5-(3,5-dimethylisoxazol-4-yl)-1H-pyrrolo[2,3-b]pyridin-3-yl)-5-ethoxybenzoic acid], the IC50 is reported as 1 to 8 µM.
`CCOc1cc(C(=O)O)cc(Cl)c1-c1cn(C2CCOCC2)c2ncc(-c3c(C)noc3C)cc12` [P-0371, 3-chloro-4-(5-(3,5-dimethylisoxazol-4-yl)-1-(tetrahydro-2H-pyran-4-yl)-1H-pyrrolo[2,3-b]pyridin-3-yl)-5-ethoxybenzoic acid] gave an IC50 of 1 to 8 µM.
In the case of `Cc1noc(C)c1-c1cnc2c(c1)c(-c1c(Cl)cc(C(=O)O)cc1OC(C)C)cn2C1CCOCC1` [P-0372, 3-chloro-4-(5-(3,5-dimethylisoxazol-4-yl)-1-(tetrahydro-2H-pyran-4-yl)-1H-pyrrolo[2,3-b]pyridin-3-yl)-5-isopropoxybenzoic acid], the IC50 is reported as 1 to 8 µM.
`CCOc1cc(C(=O)O)nc(OCC)c1-c1cn(C2CCOCC2)c2ncc(-c3c(C)noc3C)cc12` [P-0373, 5-(5-(3,5-dimethylisoxazol-4-yl)-1-(tetrahydro-2H-pyran-4-yl)-1H-pyrrolo[2,3-b]pyridin-3-yl)-4,6-diethoxypicolinic acid] showed an IC50 of 8 to 1000 µM.
`CCOc1cc(C(=O)O)c(F)c(OCC)c1-c1cn(C2CCOCC2)c2ncc(-c3c(C)noc3C)cc12` [P-0374, 4-(5-(3,5-dimethylisoxazol-4-yl)-1-(tetrahydro-2H-pyran-4-yl)-1H-pyrrolo[2,3-b]pyridin-3-yl)-3,5-diethoxy-2-fluorobenzoic acid] gave an IC50 of 8 to 1000 µM.
`CCOc1cc(C(=O)O)c(F)cc1-c1cn(C2CCOCC2)c2ncc(-c3c(C)noc3C)cc12` [P-0375, 4-(5-(3,5-dimethylisoxazol-4-yl)-1-(tetrahydro-2H-pyran-4-yl)-1H-pyrrolo[2,3-b]pyridin-3-yl)-5-ethoxy-2-fluorobenzoic acid] gave an IC50 of 8 to 1000 µM.
Work on `CCOc1nc(C(=O)O)ccc1-c1cn(C2CCOCC2)c2ncc(-c3c(C)noc3C)cc12` [P-0376, 5-(5-(3,5-dimethylisoxazol-4-yl)-1-(tetrahydro-2H-pyran-4-yl)-1H-pyrrolo[2,3-b]pyridin-3-yl)-6-ethoxypicolinic acid] yielded an IC50 of 8 to 1000 µM.
`CCOc1cc(C(=O)O)c(F)cc1-c1cn(-c2ccccc2F)c2ncc(-c3c(C)noc3C)cc12` [P-0377, 4-(5-(3,5-dimethylisoxazol-4-yl)-1-(2-fluorophenyl)-1H-pyrrolo[2,3-b]pyridin-3-yl)-5-ethoxy-2-fluorobenzoic acid] gave an IC50 of 1 to 8 µM.
In the case of `Cc1noc(C)c1-c1cnc2c(c1)c(-c1ccc(C(=O)O)cc1OC(F)(F)F)cn2C1CCC1` [P-0378, 4-(1-cyclobutyl-5-(3,5-dimethylisoxazol-4-yl)-1H-pyrrolo[2,3-b]pyridin-3-yl)-3-(trifluoromethoxy)benzoic acid], the IC50 is reported as 0.0001 to 1 µM.
`Cc1noc(C)c1-c1cnc2c(c1)c(-c1ccc(C(=O)O)cc1OC1CC1)cn2C1CCOCC1` [P-0379, 3-cyclopropoxy-4-(5-(3,5-dimethylisoxazol-4-yl)-1-(tetrahydro-2H-pyran-4-yl)-1H-pyrrolo[2,3-b]pyridin-3-yl)benzoic acid] gave an IC50 of 8 to 1000 µM.
Work on `Cc1noc(C)c1-c1cnc2c(c1)c(-c1c(Cl)cc(C(=O)O)cc1OC(F)(F)F)cn2C(C1CCC1)C1CCC1` [P-0380, 3-chloro-4-(1-(dicyclobutylmethyl)-5-(3,5-dimethylisoxazol-4-yl)-1H-pyrrolo[2,3-b]pyridin-3-yl)-5-(trifluoromethoxy)benzoic acid] yielded an IC50 of 8 to 1000 µM.
Work on `Cc1noc(C)c1-c1cnc2c(c1)c(-c1c(Cl)cc(C(=O)O)cc1OC1CC1)cn2C1CCOCC1` [P-0381, 3-chloro-5-cyclopropoxy-4-(5-(3,5-dimethylisoxazol-4-yl)-1-(tetrahydro-2H-pyran-4-yl)-1H-pyrrolo[2,3-b]pyridin-3-yl)benzoic acid] yielded an IC50 of 1 to 8 µM.
Work on `Cc1noc(C)c1-c1cnc2c(c1)c(-c1ccc(C(=O)O)cc1OC(F)(F)F)cn2C1CCCC1` [P-0382, 4-(1-cyclopentyl-5-(3,5-dimethylisoxazol-4-yl)-1H-pyrrolo[2,3-b]pyridin-3-yl)-3-(trifluoromethoxy)benzoic acid] yielded an IC50 of 1 to 8 µM.
For `Cc1noc(C)c1-c1cnc2c(c1)c(-c1ccc(C(=O)O)cc1OC(F)(F)F)cn2C1(C)CCOC1` (stereo not drawn) [P-0383, 4-(5-(3,5-dimethylisoxazol-4-yl)-1-(3-methyltetrahydrofuran-3-yl)-1H-pyrrolo[2,3-b]pyridin-3-yl)-3-(trifluoromethoxy)benzoic acid], the IC50 was 8 to 1000 µM.
With `Cc1noc(C)c1-c1cnc2c(c1)c(-c1ccc(C(=O)O)cc1OC(F)(F)F)cn2-c1cnc(C2CC2)nc1` [P-0384, 4-(1-(2-cyclopropylpyrimidin-5-yl)-5-(3,5-dimethylisoxazol-4-yl)-1H-pyrrolo[2,3-b]pyridin-3-yl)-3-(trifluoromethoxy)benzoic acid] the IC50 was 1 to 8 µM.
`Cc1noc(C)c1-c1cnc2c(c1)c(-c1ccc(C(=O)O)cc1OC(F)(F)F)cn2C1(C)CCOCC1` [P-0385, 4-(5-(3,5-dimethylisoxazol-4-yl)-1-(4-methyltetrahydro-2H-pyran-4-yl)-1H-pyrrolo[2,3-b]pyridin-3-yl)-3-(trifluoromethoxy)benzoic acid] showed an IC50 of 8 to 1000 µM.
`Cc1noc(C)c1-c1cnc2c(c1)c(-c1c(Cl)cc(C(=O)O)cc1OC(F)(F)F)cn2-c1cnc(C2CC2)nc1` [P-0386, 3-chloro-4-(1-(2-cyclopropylpyrimidin-5-yl)-5-(3,5-dimethylisoxazol-4-yl)-1H-pyrrolo[2,3-b]pyridin-3-yl)-5-(trifluoromethoxy)benzoic acid] gave an IC50 of 1 to 8 µM.
Compound `Cc1noc(C)c1-c1cnc2c(c1)c(-c1ccc(C(=O)O)cc1OCC(F)F)cn2-c1cnc(C2CC2)nc1` [P-0387, 4-(1-(2-cyclopropylpyrimidin-5-yl)-5-(3,5-dimethylisoxazol-4-yl)-1H-pyrrolo[2,3-b]pyridin-3-yl)-3-(2,2-difluoroethoxy)benzoic acid] has an IC50 of 8 to 1000 µM.
